Reference: patent US5621102A, “Process for preparing enantiomerically pure xanthine derivatives” (Cell Therapeutics, Inc., priority 1995, dated 1997)

Legend:
Format in all cases: cell-based
[1] = test system: smooth muscle cells; experiment: smooth muscle proliferation stimulated by PDGF and IL-1
Excerpt: CT1501R and PTX were separately added to the cells two hours prior to activation with PDGF and IL-1.

[2] = test system: lysophosphatidic acid acyl transferase (LPAAT); experiment: in vitro inhibition of LPAAT in 3T3 Ras-transformed fibroblasts stimulated with IL-1β
Method: FIG. 17 illustrates a comparison of CT1501R, its S isomer CT1501S, and PTX on in vitro inhibition of lysophosphatidic acid acyl transferase (LPAAT), an enzyme involved in second messenger signaling. […] LPAAT activity was determined in 3T3 Ras-transformed fibroblasts stimulated with IL-1β.
A method described here permits differentiation of the various subspecies of PA and DAG based upon acyl chain composition. This can differentiate those compounds that activate (and inhibit activation of) the present second messenger pathway from other pathways, such as the classical PI pathway. The present second messenger pathway involves substrates with unsaturated fatty acids in the sn-2 position other than arachidonate and those sub species of PAPH and LPAAT that are not involved in normal cellular housekeeping functions that are part of the classical PI pathway. […]
One in vitro assay measures inhibition of the relevant enzymes lysophosphatidic acid acyltransferase (LPAAT) and phosphatidic acid phosphoryl hydrolase (PAPH). […] It is important to note that the assay method permits discrimination between various forms of PA and DAG so that those relevant to the pathway affected by the (R) or (S) compounds of the invention can be measured directly. […] Thus, the relevant unsaturated (non-arachidonic) PA and DAG subspecies may be detected. […]

[3] = test system: IL-1-α release in LPS activated PEC; experiment: IL-1α release from LPS activated PEC, ELISA; details: Mus musculus, at 24 hours after LPS, read-out: maximum inhibition of IL-1α release
Method: Cells were isolated and treated with or without 250 μM CT1501R one hour prior to activation with 10 μg/ml LPS. At various times later, supernatants were harvested and assayed for IL-1-α by ELISA (+/-SD)
Murine peritoneal exudate cell macrophages (PEC) were isolated by perfusion of mouse peritoneum and plated into 96-well trays at 5×10^5 cells per well. Cells were stimulated with 5 μg/ml Salmonella abortus equi-derived endotoxin CLPS; Sigma Chemical Co., L-1887) or 50 ng/ml IL-1α (Genzyme; Cambridge, Mass.) with or without the addition of CT1501R added to the cultures one hour prior to addition of the stimulus. At various times thereafter, supernatants were removed and levels of either TNF-α or IL-1α were assayed using commercial 96-well microtiter immunoassay kits (Genzyme; TNF; Endogen, Boston, Mass.; IL-1α) according to manufacturer's specifications. For the adhesion studies, early passage human umbilical vein endothelial cells (HUVEC) were obtained from commercial suppliers (Clonetics, San Diego, Calif. or Cell Systems, Seattle, Wash.) and cultured in defined, Hepes buffered, serum free medium (Cell Systems, cat 301-180) supplemented with acidic FGF (Cell Systems cat 401-111). […] After addition of […] Hanks Balanced Salt Solution (HBSS), the microtiter plate was then analyzed on a Millipore Cytofiuor fluorescent plate reader (excitation 488 nm; emission 525 nm). […]

Question: For `C[C@@H](O)CCCCn1c(=O)c2c(ncn2C)n(C)c1=O` [CT1501R, (R)-1-(5-hydroxyhexyl)-3,7-dimethylxanthine], which “activity compared with PTX, smooth muscle cell proliferation” value [1] is on record?
Answer: more active than PTX

Question: And the “inhibition of smooth muscle cell proliferation” value ([1]; drug added two hours prior to activation)?
Answer: inhibited smooth muscle cell proliferation at the higher doses tested

Question: What about the “potency relative to racemic mixture (M1)” value [2] of the same molecule?
Answer: two to three time more potent than the racemic mixture

Question: What about the “inhibition of LPAAT enzyme activity” value ([2]; 3T3 Ras-transformed fibroblasts stimulated with IL-1β, at IC50 concentrations achievable in a clinical setting) of the same molecule?
Answer: significantly inhibited enzyme activity

Question: And the inhibition at 250 µM [3]?
Answer: ~50%
